Results on 1 molecule are retold here after patent US20040180927A1, “Inhibitors of cysteine protease” (SmithKline Beecham Corporation, priority 1996, published 2004).

pKi: −log10 of the molar value. Some results are limits rather than exact numbers.

By pKi is commonly meant the Ki on a negative log10 scale, so that one unit is a factor of ten.

The target in the experiment is T1, cathepsin K (Homo sapiens, UniProt P43235).
T1 sequence (P43235 115-329): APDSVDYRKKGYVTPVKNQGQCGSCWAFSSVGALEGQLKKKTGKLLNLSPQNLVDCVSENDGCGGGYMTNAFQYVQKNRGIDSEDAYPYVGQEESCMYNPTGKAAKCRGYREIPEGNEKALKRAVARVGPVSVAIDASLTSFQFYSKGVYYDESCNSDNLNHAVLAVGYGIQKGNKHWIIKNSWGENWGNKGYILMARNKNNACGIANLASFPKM
The experiment can be described thus: Determination of cathepsin K proteolytic catalytic activity; inhibition studies (progress curve method). In kind it is biochemical. The following applies: human recombinant enzyme, fluorogenic substrate Cbz-Phe-Arg-AMC, pH 5.5. The method, then:
Determination of cathepsin K proteolytic catalytic activity
All assays for cathepsin K were carried out with human recombinant enzyme. Standard assay conditions for the determination of kinetic constants used a fluorogenic peptide substrate, typically Cbz-Phe-Arg-AMC, and were determined in 100 mM Na acetate at pH 5.5 containing 20 mM cysteine and 5 mM EDTA. Stock substrate solutions were prepared at concentrations of 10 or 20 mM in DMSO with 20 uM final substrate concentration in the assays. All assays contained 10% DMSO. […] All assays were conducted at ambient temperature. Product fluorescence (excitation at 360 nm; emission at 460 nm) was monitored with a Perceptive Biosystems Cytofluor II fluorescent plate reader. […]
Potential inhibitors were evaluated using the progress curve method. […] For those compounds whose progress curves were linear, apparent inhibition constants (Ki,app) were calculated according to equation 1 (Brandt et al., Biochemitsry, 1989, 28, 140): […]
[AMC]=νSSt+(ν0−νSS) [I−exp(−kobst)]/kobs (2) where [AMC] is the concentration of product formed over time t, ν0 is the initial reaction velocity and νSS is the final steady state rate. Values for kobs were then analyzed as a linear function of inhibitor concentration to generate an apparent second order rate constant (kobs/inhibitor concentration or kobs/[1]) describing the time-dependent inhibition. […]

In the case of `CC(C)C[C@H](NS(=O)(=O)c1cccc2cccnc12)C(=O)NC1COCC1=O` (mixture of isomers) [4-(R,S)-Amino-N-[(8-quinolinesulfonyl)-S-leucine]-3-tetrahydrofuran-3-one], the pKi is under 5.00.
